Laboratory results reported in ChEMBL document CHEMBL2150883, “Development of indole compounds as small molecule fusion inhibitors targeting HIV-1 glycoprotein-41” (J Med Chem, 2011).

Tests used:
[1] = Cytotoxicity against human MAGI-CCR5 cells assessed as cell viability by MTS assay; format: cell-based
[2] = tested on: Human immunodeficiency virus 1; test: Antiviral activity against HIV1 Ba-L assessed as inhibition of viral replication by CCR5/CXCR4-tropic MAGI assay in presence of 5% serum; format: functional, organism-based; conditions: Human immunodeficiency virus 1, Ba-L
[3] = tested on: Human immunodeficiency virus 1; test: Antiviral activity against HIV1 Ba-L assessed as inhibition of viral replication by CCR5/CXCR4-tropic MAGI assay in presence of 10% serum; format: functional, organism-based; conditions: Human immunodeficiency virus 1, Ba-L
[4] = Cytotoxicity against human MAGI-CCR5 cells assessed as cell viability by MTS assay in presence of 10% serum; format: cell-based
[5] = Cytotoxicity against human MAGI-CCR5 cells assessed as cell viability by MTS assay in presence of 5% serum; format: cell-based
[6] = tested on: Human immunodeficiency virus 1; test: Antiviral activity against HIV1 Ba-L assessed as inhibition of viral replication by CCR5/CXCR4-tropic MAGI assay in presence of 2% serum; format: functional, organism-based; conditions: Human immunodeficiency virus 1, Ba-L
[7] = tested on: Human immunodeficiency virus 1; test: Antiviral activity against HIV1 3B assessed as inhibition of viral replication by CCR5/CXCR4-tropic MAGI assay in presence of 10% serum; format: functional, organism-based; conditions: Human immunodeficiency virus 1, 3B
[8] = Cytotoxicity against human MAGI-CCR5 cells assessed as cell viability by MTS assay in presence of 2% serum; format: cell-based
[9] = Inhibition of gp41 in HIV1 HXB2 assessed as cell-cell fusion inhibition after 6 hrs by luciferase reporter gene assay; conditions: Human immunodeficiency virus 1, HXB2, 6 h
[10] = Binding affinity to HIV1 HXB2 gp41 by fluorescence assay; design: species or system Human immunodeficiency virus 1

EC50 [2] [µM]	EC50 [3] [µM]	EC50 [6] [µM]	EC50 [7] [µM]	Compound	CC50 ([1]; magi-ccr5) [µM]	CC50 [4] [µM]	CC50 [5] [µM]	CC50 [8] [µM]	CC50 ([1]; MAGI-CCR5 cells) [µM]	EC50 [9] [µM]	Ki [10] [µM]
10.1	13.1	6.41	15.5	O=C(O)c1cccc(Cn2ccc3cc(-c4ccc5cc(Cl)ccc5n4)ccc32)c1	> 100	> 100	> 100	50.1	–	–	–
56.2	> 100	34.2	> 100	O=C(O)c1cccc(COc2cccc(-c3ccc4ccn(Cc5cccc(C(=O)O)c5)c4c3)c2)c1	–	> 100	> 100	> 100	> 500	–	–
18.7	22.6	13.8	34.3	COc1ccc(COc2cccc(-c3ccc4ccn(Cc5cccc(C(=O)OCc6cccc(C(=O)O)c6)c5)c4c3)c2)cc1	> 100	> 100	> 100	58.9	–	–	–
88.5	> 100	48	> 100	O=C(O)c1cccc(Cn2ccc3ccc(-c4ccc5cc(Cl)ccc5n4)cc32)c1	47	> 100	> 100	> 100	–	–	–
49.6	92.1	14.6	> 100	O=C(O)c1cccc(Cc2ccc3ccn(Cn4ccc5ccc(Cc6cccc(C(=O)O)c6)cc54)c3c2)c1	–	> 100	> 100	> 100	–	–	–
2.01	2.38	0.92	2.8	COc1ccc(Cn2ccc3ccc(-c4ccc5ccn(Cc6cccc(C(=O)O)c6)c5c4)cc32)cc1	19	> 100	> 100	50.1	–	–	–
34	67.7	15.8	61.5	COc1cccc(-n2ccc3ccc(Cc4cccc(C(=O)O)c4)cc32)c1	–	> 100	> 100	> 100	–	–	–
91.2	> 100	55.8	> 100	COc1ccc(Cn2ccc3ccc(Cc4cccc(C(=O)O)c4)cc32)cc1	100	> 100	> 100	92.7	–	–	–
58.5	82.7	27.6	> 100	O=C(O)c1cccc(Cn2ccc3ccc(-c4cccc(O)c4)cc32)c1	> 100	> 100	> 100	> 100	–	–	–

The remaining lines, values behind:

Compound	EC50 [2] [µM]	EC50 [3] [µM]	EC50 [6] [µM]	EC50 [7] [µM]	CC50 ([1]; magi-ccr5) [µM]	CC50 [4] [µM]	CC50 [5] [µM]	CC50 [8] [µM]	CC50 ([1]; MAGI-CCR5 cells) [µM]	EC50 [9] [µM]	Ki [10] [µM]
COc1ccc(C(=O)O)cc1Cc1ccc2cc[nH]c2c1	> 100	> 100	> 100	> 100	> 100	> 100	> 100	> 100	–	–	–
O=Cc1c[nH]c2cc(Cc3cccc(C(=O)O)c3)ccc12	–	–	–	–	–	–	–	–	> 100	–	–
O=C(O)c1cccc(Cc2ccc3[nH]ccc3c2)c1	52.4	63.5	42.4	> 100	–	> 100	> 100	> 100	> 400	–	–
O=C(O)c1cccc(Cc2ccc3cc[nH]c3c2)c1	34.8	44.7	15.5	100	–	> 100	> 100	> 100	–	–	–
O=C(O)c1cc(O)cc(Cc2ccc3cc[nH]c3c2)c1	> 100	> 100	> 100	> 100	–	> 100	> 100	> 100	> 500	–	–
O=C(O)c1cccc(-c2ccc3cc[nH]c3c2)c1	–	–	–	–	–	–	–	–	> 100	–	–
COc1cc(Cc2ccc3cc[nH]c3c2)cc(C(=O)O)c1	> 100	> 100	8.65	> 100	> 100	> 100	> 100	> 100	–	–	–
O=C(O)c1cccc(Cc2ccc3c(ccn3Cc3cccc(C(=O)O)c3)c2)c1	–	–	–	–	–	–	–	–	> 100	> 100	35
O=C(O)c1cccc(Cc2ccc3ccn(Cc4cccc(C(=O)O)c4)c3c2)c1	–	–	–	–	–	–	–	–	> 200	–	–
COc1cccc(-c2ccc3ccn(Cc4cccc(C(=O)O)c4)c3c2)c1	36.6	47.4	18	57.4	–	> 100	> 100	67.5	> 500	–	–
O=C(O)c1cccc(Cc2ccc3ccn(-c4cccc(C(=O)O)c4)c3c2)c1	–	–	–	–	–	–	–	–	> 400	–	45
O=C(O)c1ccc(O)c(Cc2ccc3cc[nH]c3c2)c1	89.3	> 100	42.7	> 100	–	> 100	> 100	> 100	> 500	–	–
O=C(O)c1cccc(Cn2ccc3ccc(-c4ccc5ccn(Cc6ccc(F)cc6)c5c4)cc32)c1	3.3	4.49	1.56	5.2	17	> 100	98.5	52.2	–	0.54	1.1
O=C(O)C(=O)c1c[nH]c2cc(Cc3cccc(C(=O)O)c3)ccc12	–	–	–	–	–	–	–	–	> 100	–	–
O=C(O)c1ccc([N+](=O)[O-])c(Cc2ccc3cc[nH]c3c2)c1	82.7	> 100	18.5	> 100	> 100	> 100	> 100	> 100	–	–	–
